Reference: US10294202B2, “Pyrrolidinones as herbicides” (FMC Corporation, priority 2013, dated 2019)

How the values were obtained:
barnyardgrass [1] = assay: Test C flooded paddy test; format: in vivo, Echinochloa crus-galli; details: Flood
In short: (§1)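 Ratings reflect visual comparison with controls on a 0–100 scale, where 100 is complete control. Compound is dosed into standing paddy water 3 cm deep over 2-leaf-stage plants, kept in the greenhouse 13 to 15 days.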

rice = assay: Test C flooded paddy test; format: in vivo, Oryza sativa; details: Flood
In short: as §1

corn = assay: Test A pre-/postemergence herbicide test; format: in vivo, Zea mays
In short: (§2)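 Seeds in loam–sand blend received preemergence directed soil spray; separately, plants 2–10 cm at one- to two-leaf stage received postemergence spray, both with test chemicals in non-phytotoxic solvent with surfactant. After ~10 days in greenhouse, injury rated visually against untreated controls, 0 (no effect) to 100 (complete control).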

barnyardgrass [2] = assay: Test A pre-/postemergence herbicide test; format: in vivo, Echinochloa crus-galli
In short: as §2

pigweed = assay: Test A pre-/postemergence herbicide test; format: in vivo, Amaranthus retroflexus
In short: as §2

crabgrass, large = assay: Test A pre-/postemergence herbicide test; format: in vivo, Digitaria sanguinalis
In short: as §2

morningglory = assay: Test A pre-/postemergence herbicide test; format: in vivo, Ipomoea spp.
In short: as §2

sedge, umbrella = assay: Test C flooded paddy test; format: in vivo, Cyperus difformis; details: Flood
In short: as §1

wheat = assay: Test A pre-/postemergence herbicide test; format: in vivo, Triticum aestivum
In short: as §2

ducksalad = assay: Test C flooded paddy test; format: in vivo, Heteranthera limosa; details: Flood
In short: as §1

velvetleaf = assay: Test A pre-/postemergence herbicide test; format: in vivo, Abutilon theophrasti
In short: as §2

giant foxtail = assay: Test A pre-/postemergence herbicide test; format: in vivo, Setaria faberii
In short: as §2

[3] = 125 g ai/ha, scale of 0 to 100 where 0 is no effect and 100 is complete control, 13 to 15 days
[4] = Postemergence, 125 g ai/ha, 0 to 100 scale, 0 no effect, 100 complete control
[5] = Postemergence, 500 g ai/ha, 0 to 100 scale (0 no effect, 100 complete control)
[6] = Preemergence, 125 g ai/ha, visual rating on 0 to 100 scale (0 no effect, 100 complete control)
[7] = preemergence, 500 g ai/ha, 0 to 100 scale
[8] = 31 g ai/ha, scale of 0 to 100 where 0 is no effect and 100 is complete control, 13 to 15 days
[9] = 62 g ai/ha, scale of 0 to 100 where 0 is no effect and 100 is complete control, 13 to 15 days
[10] = Postemergence, 1000 g ai/ha, 0 to 100 scale (0 no effect, 100 complete control)
[11] = Preemergence, 1000 g ai/ha, visual rating on 0 to 100 scale (0 no effect, 100 complete control), approx. 10 days

O=C1NC[C@@H](c2ccc(F)c(F)c2)[C@@H]1C(=O)Nc1ccccc1F [Compound 102]
Plant response rating, Barnyardgrass (barnyardgrass [1]; [3]): 0 | Plant response rating, Barnyardgrass (barnyardgrass [1]; 250 g ai/ha, scale 0 to 100): 0 | Plant response rating, Barnyardgrass (barnyardgrass [1]; 500 g ai/ha, scale 0 to 100): 0 | Plant response rating, Barnyardgrass (barnyardgrass [1]; 1000 g ai/ha, scale 0 to 100): 0 | Plant response rating, Rice (rice; [3]): 0 | Plant response rating, Rice (rice; 250 g ai/ha, scale 0 to 100): 0 | Plant response rating, Rice (rice; 500 g ai/ha, scale 0 to 100): 0 | Plant response rating, Rice (rice; 1000 g ai/ha, scale 0 to 100): 0 | Plant response rating, Corn (corn; [4]): 0 | Plant response rating, Corn (corn; [5]): 0 | Corn plant response rating (corn; [6]): 0 | Plant response rating, Corn (corn; [7]): 0 | Plant response rating, Barnyardgrass (barnyardgrass [2]; [4]): 0 | Plant response rating, Barnyardgrass (barnyardgrass [2]; [5]): 0 | Barnyardgrass plant response rating (barnyardgrass [2]; [6]): 0 | Plant response rating, Barnyardgrass (barnyardgrass [2]; preemergence, 500 g ai/ha, 0 to 100 scale (0 no effect, 100 complete control)): 0 | Plant response rating, Pigweed (pigweed; [4]): 0 | Plant response rating, Pigweed (pigweed; [5]): 0 | Pigweed plant response rating (pigweed; [6]): 0 | Plant response rating, Pigweed (pigweed; [7]): 0 | Plant response rating, Crabgrass, Large (crabgrass, large; [4]): 0 | Plant response rating, Crabgrass, Large (crabgrass, large; [5]): 0 | Crabgrass, Large plant response rating (crabgrass, large; [6]): 0 | Plant response rating, Crabgrass, Large (crabgrass, large; [7]): 0 | Plant response rating, Morningglory (morningglory; [4]): 0 | Plant response rating, Morningglory (morningglory; [5]): 0 | Morningglory plant response rating (morningglory; [6]): 0 | Plant response rating, Morningglory (morningglory; [7]): 0 | Plant response rating, Sedge, Umbrella (sedge, umbrella; [3]): 0 | Plant response rating, Sedge, Umbrella (sedge, umbrella; 250 g ai/ha, scale 0 to 100): 0 | Plant response rating, Sedge, Umbrella (sedge, umbrella; 500 g ai/ha, scale 0 to 100): 0 | Plant response rating, Sedge, Umbrella (sedge, umbrella; 1000 g ai/ha, scale 0 to 100): 0 | Plant response rating, Wheat (wheat; [4]): 0 | Plant response rating, Wheat (wheat; [5]): 0 | Wheat plant response rating (wheat; [6]): 0 | Plant response rating, Wheat (wheat; [7]): 0 | Plant response rating, Ducksalad (ducksalad; [3]): 0 | Plant response rating, Ducksalad (ducksalad; 250 g ai/ha, scale 0 to 100): 0 | Plant response rating, Ducksalad (ducksalad; 500 g ai/ha, scale 0 to 100): 0 | Plant response rating, Ducksalad (ducksalad; 1000 g ai/ha, scale 0 to 100): 0 | Plant response rating, Velvetleaf (velvetleaf; [4]): 0 | Plant response rating, Velvetleaf (velvetleaf; [5]): 0 | Velvetleaf plant response rating (velvetleaf; [6]): 0 | Plant response rating, Velvetleaf (velvetleaf; [7]): 0 | Plant response rating, Foxtail, Giant (giant foxtail; [4]): 0 | Plant response rating, Foxtail, Giant (giant foxtail; [5]): 0 | Foxtail, Giant plant response rating (giant foxtail; [6]): 0 | Plant response rating, Foxtail, Giant (giant foxtail; [7]): 0

O=C1NCC(c2ccc(F)c(F)c2)C1C(=O)Nc1ccccc1[N+](=O)[O-] (racemic) [Compound 20]
Plant response rating, Barnyardgrass (barnyardgrass [1]; [8]): 0 | Plant response rating, Barnyardgrass (barnyardgrass [1]; [9]): 0 | Plant response rating, Barnyardgrass (barnyardgrass [1]; [3]): 0 | Plant response rating, Barnyardgrass (barnyardgrass [1]; 250 g ai/ha, scale 0 to 100): 0 | Plant response rating, Rice (rice; [8]): 0 | Plant response rating, Rice (rice; [9]): 0 | Plant response rating, Rice (rice; [3]): 0 | Plant response rating, Rice (rice; 250 g ai/ha, scale 0 to 100): 0 | Plant response rating, Corn (corn; [10]): 0 | Plant response rating, Corn (corn; [11]): 0 | Plant response rating, Barnyardgrass (barnyardgrass [2]; [10]): 80 | Plant response rating, Barnyardgrass (barnyardgrass [2]; [11]): 90 | Plant response rating, Pigweed (pigweed; [10]): 0 | Plant response rating, Pigweed (pigweed; [11]): 0 | Plant response rating, Crabgrass, Large (crabgrass, large; [10]): 90 | Plant response rating, Crabgrass, Large (crabgrass, large; [11]): 90 | Plant response rating, Morningglory (morningglory; [10]): 0 | Plant response rating, Morningglory (morningglory; [11]): 0 | Plant response rating, Sedge, Umbrella (sedge, umbrella; [8]): 0 | Plant response rating, Sedge, Umbrella (sedge, umbrella; [9]): 0 | Plant response rating, Sedge, Umbrella (sedge, umbrella; [3]): 0 | Plant response rating, Sedge, Umbrella (sedge, umbrella; 250 g ai/ha, scale 0 to 100): 0 | Plant response rating, Wheat (wheat; [10]): 20 | Plant response rating, Wheat (wheat; [11]): 0 | Plant response rating, Ducksalad (ducksalad; [8]): 0 | Plant response rating, Ducksalad (ducksalad; [9]): 0 | Plant response rating, Ducksalad (ducksalad; [3]): 0 | Plant response rating, Ducksalad (ducksalad; 250 g ai/ha, scale 0 to 100): 0 | Plant response rating, Velvetleaf (velvetleaf; [10]): 0 | Plant response rating, Velvetleaf (velvetleaf; [11]): 30 | Plant response rating, Foxtail, Giant (giant foxtail; [10]): 80 | Plant response rating, Foxtail, Giant (giant foxtail; [11]): 90

O=C1NCC(c2ccc(F)c(F)c2)C1C(=O)Nc1ccc(F)cc1F (racemic) [Compound 23]
Plant response rating, Barnyardgrass (barnyardgrass [1]; [9]): 0 | Plant response rating, Barnyardgrass (barnyardgrass [1]; 250 g ai/ha, scale 0 to 100): 0 | Plant response rating, Rice (rice; [9]): 0 | Plant response rating, Rice (rice; 250 g ai/ha, scale 0 to 100): 0 | Plant response rating, Corn (corn; [10]): 0 | Plant response rating, Corn (corn; [11]): 0 | Plant response rating, Barnyardgrass (barnyardgrass [2]; [10]): 90 | Plant response rating, Barnyardgrass (barnyardgrass [2]; [11]): 90 | Plant response rating, Pigweed (pigweed; [10]): 0 | Plant response rating, Crabgrass, Large (crabgrass, large; [10]): 80 | Plant response rating, Crabgrass, Large (crabgrass, large; [11]): 90 | Plant response rating, Morningglory (morningglory; [10]): 0 | Plant response rating, Morningglory (morningglory; [11]): 0 | Plant response rating, Sedge, Umbrella (sedge, umbrella; [9]): 0 | Plant response rating, Sedge, Umbrella (sedge, umbrella; 250 g ai/ha, scale 0 to 100): 30 | Plant response rating, Wheat (wheat; [10]): 0 | Plant response rating, Wheat (wheat; [11]): 0 | Plant response rating, Ducksalad (ducksalad; [9]): 30 | Plant response rating, Ducksalad (ducksalad; 250 g ai/ha, scale 0 to 100): 100 | Plant response rating, Velvetleaf (velvetleaf; [10]): 40 | Plant response rating, Velvetleaf (velvetleaf; [11]): 40 | Plant response rating, Foxtail, Giant (giant foxtail; [10]): 80 | Plant response rating, Foxtail, Giant (giant foxtail; [11]): 90
